The text below walks through data of patent US11617735B2, “Purified forms of rofecoxib, methods of manufacture and use” (Tremeau Pharmaceuticals, Inc., priority 2018, dated 2023).

The data set is described as follows: RXB-Hydroxy formation from rofecoxib in DMSO with Na2SO3 under air (UHPLC). Format: physicochemical. The settings on record: 5.5V DMSO. As to the method:
Trials were performed to check the effect of both temperature and sodium sulfite on the 4-[4-(methylsulphonyl)phenyl]-3-phenyl-5-hydroxyfuran-2-one rate. Pure rofecoxib (RXB-201) (F851) was solubilized in 5.5V DMSO. on which Na2SO3 was added. Three amounts of Na2SO3 were tested: • 0%: rofecoxib (RXB-201) post filtration • 0.5%: ashes result obtained on pilot batch (crude rofecoxib (RXB-201) F801) • 1.5%: ashes result obtained on APG P052-110 batch
Samples were subjected to 2 different temperatures under air atmosphere: • 40° C.: current heating temperature for polishing filtration • 60° C.: possible future temperature for polishing filtration if DMSO volumes are reduced for better productivity.

As for `CS(=O)(=O)c1ccc(C2=C(c3ccccc3)C(=O)OC2)cc1` [Rofecoxib, 4-[4-(methylsulfonyl)phenyl]-3-phenyl-2(5H)-furanone], the “RXB-Hydroxy (UPLC)” value is on record as 0.08 % a/a (0% Na2SO3 (residue on ignition), IPC1 (3 h), 40° C.); 0.16 % a/a (0% Na2SO3 (residue on ignition), IPC1 (3 h), 60° C.); 0.14 % a/a (0% Na2SO3 (residue on ignition), IPC2 (6 h), 40° C.); 0.17 % a/a (0% Na2SO3 (residue on ignition), IPC2 (6 h), 60° C.); 0.30 % a/a (0.5% Na2SO3 (residue on ignition), IPC1 (3 h), 40° C.); 0.35 % a/a (0.5% Na2SO3 (residue on ignition), IPC1 (3 h), 60° C.). Besides, the “RXB-Hydroxy (UPLC)” value worked out at 0.45 % a/a (0.5% Na2SO3 (residue on ignition), IPC2 (6 h), 40° C.); 0.52 % a/a (0.5% Na2SO3 (residue on ignition), IPC2 (6 h), 60° C.); 0.38 % a/a (1.5% Na2SO3 (residue on ignition), IPC1 (3 h), 40° C.); 0.67 % a/a (1.5% Na2SO3 (residue on ignition), IPC1 (3 h), 60° C.); 0.60 % a/a (1.5% Na2SO3 (residue on ignition), IPC2 (6 h), 40° C.); 0.73 % a/a (1.5% Na2SO3 (residue on ignition), IPC2 (6 h), 60° C.).
